Measurements: patent publication US10287616B2, “Label free biosensors, gram-negative bacteria detection, and real-time and end point determination of antibiotic effects” (priority 2015, dated 2019)
Where “and” joins values, the source holds several entries; their conditions need not be identical. Equal values may be shown once. Read-outs that look alike come from different tables or passages of the source.

Columns and labels:
[1] = system: E. coli W1485; settings: for ΔR (Ω) / ΔR/R0 (%) / bacterial (LPS) binding reduced to, frequency shift normalized to control: 18 hours
Protocol: The gold QCM electrode consisted of a thin AT-cut quartz crystal wafer with vapor deposited gold electrode on each side (10 MHz, non-polished with 1000 A gold, geometric area is 0.22 cm2, International Crystal Company). For all QCM test, the gold electrode was mounted on the side of a KeI-F cell chamber. Frequency monitoring was performed using a Maxtek RQCM quartz crystal microbalance research instrument. Baseline was recorded in 1 mL of 10 mM HEPES buffer containing 1 mM Ca^2+ and 1 mM Mn^2+. Each of the bacterial samples to be analyzed was then added into the detection sensor cell after stabilization of resonance frequency (shift less than 1 Hz·min-1). A small magnetic stir bar was used to increase the mass transfer through convection. The frequency changes (ΔF) of the QCM were monitored using a network/spectrum/impedance analyzer (Agilent 4395A) controlled by a PC via an Intel card.
In the end point measurement, four samples containing 2×10^5 cells/mL of E. coli obtained from log phase in fresh LB culture were prepared. […] The four samples were incubated for 18 hours, 37° C., 280 rpm on an orbital environmental shaker. Finally, 1 μL of the E. coli culture from the each prepared sample was introduced to the Con A biosensor in 1 mL of 10 mM HEPES buffer (pH 7.4) for QCM and electrochemical biosensor measurements, respectively. The sample without addition of any antibiotic was used as control.
The concentrations used were based on the literature and current clinically used dosages. The sample without any antibiotic was used as a control. As mentioned above, E. coli W1485 was used as the model Gram-negative bacterial analyte. E. coli W1485 is a “semirough” bacterial strain in which the intact LPS core is capped by a single O-antigen subunit consisting of glucose, N-acetylglucosamine, galactose, and rhamnose in the ratio 1.8:1.0:0.7:0.6, which has been confirmed by the sodium dodecyl sulfate polyacrylamide gel electrophoresis (SDS-PAGE) method. Con A binds specifically at α-D-mannosyl and α-D-glucosyl residues (two hexoses differing only by the alcohol on carbon 2) in the terminal position of ramified structures from β-glycans (reach in α-mannose, or hybrid and biantennary glycanes complexes).
Here the QCM frequency shift is because of the mass loading on the QCM surface due to bacterial adhesion and the change of damping resistance is a result of increasing softness of the interface which causes the damping of the oscillation wave.

[2] = system: E. coli W1485; settings: for ΔR (Ω) / ΔR/R0 (%): 3 hours; for ΔF (Hz): FIG. 26
Protocol: (§1) Experiments were also performed to study the concentration of the antibiotics and the length of the incubation time of antibiotics for their ability to kill or inhibit the growth of the bacteria. Different concentrations of each antibiotic were added to 5×10^8 cells/mL E. coli respectively, and then incubated at 37° C. and 280 rpm on the shaker. After 3 hours of incubation, 1 μL of antibiotic treated E. coli culture was added to the Con A sensor cell containing 1 mL of 10 mM HEPES buffer (pH 7.4) for QCM measurements, respectively. […] 1 μL of each antibiotic treated E. coli was taken at different incubation times (i.e., 0, 1, 2, 3 hours) and was added into the Con A senor cell containing 1 mL of 10 mM HEPES buffer (pH 7.4) for QCM measurements.
Because antibiotics from different classes have different mechanisms of action and antibiotic effects on bacterial morphology and viability are concentration and time dependent, it was hypothesized that the ability of antibiotics to kill the bacteria or inhibit its growth may be class and concentration dependent, which will affect the interaction between the LPS and Con A sensor. To further study the effects of concentration and length of incubation time on the bactericidal activities of antibiotics, different concentration of antibiotics were added into the broth containing E. coli and incubated for different lengths of times. […] FIGS. 26D through 26F show the histogram of ΔF or ΔR changes vs antibiotics with different concentrations that are again correlated to each other with ceftriaxone showing consistent increase in resistance with increasing its concentration. This is probably due to more and more cell lysis, thereby intensifying the fluidic environment.
To further compare the effect of concentrations on the bactericidal activities of the antibiotics, the binding kinetics between Con A sensor and E. coli were studied. The binding between Con A sensor and E. coli can be described by eq 2. [Con Aattached to gold]+[E. coli]→[E. coli/Con Aattached to gold] (2)
The amount of the complex E. coli/Con A formed at time t after the injection is given by eqs 3 and […], where ΔMmax is the maximum binding amount of E. coli/Con A, ΔM is the measured binding amount, and t is the time after injection. τ is the relaxation time associated with E. coli binding, which is calculated from curve fittings of the ΔF during the binding process. A higher τ value means a longer binding time is required between the Con A and E. coli.

[3] = system: E. coli W1485; settings: for ΔR (Ω) / ΔR/R0 (%): 10 mg/L; for ΔF (Hz): 10 mg/L antibiotic, FIG. 27
Protocol: as §1
In most studies dealing with antibiotic-induced LPS release, bioreactive endotoxin has been measured by means of the Limulus amoebocyte lysate (LAL) assay, which involves an enzymatic reaction triggered by the core region of LPS. […] However, some antibiotics (i.e., aminoglycoside) are known to suppress the LAL reaction, which limits the application of LAL. Reproducible ELISA also can be used to detect LPS. […] A QCM is known to provide a very sensitive mass measuring device and dispense with the time- and cost-demanding labeling step and also eliminates any possible interference of the “true” binding process due to the presence of the labels.

[4] = system: E. coli; settings: cited from earlier work; for Previously Reported Minimum Inhibitory Concentration (MIC, mg/L): different strains
[5] = E. coli binding to Con A sensor after 1 mg/L antibiotic
[6] = E. coli binding to Con A sensor after 10 mg/L antibiotic
[7] = E. coli binding to Con A sensor after 30 mg/L antibiotic

| Structure (SMILES) | ΔR (Ω) ([1]; 0.1 mg/L antibiotic, FIG. 24A) | ΔR/R0 (%) ([1]; 0.1 mg/L antibiotic, FIG. 24A) | ΔR (Ω) ([2]; 1 mg/L antibiotic) | ΔR/R0 (%) ([2]; 1 mg/L antibiotic) | ΔR (Ω) ([2]; 10 mg/L antibiotic) | ΔR/R0 (%) ([2]; 10 mg/L antibiotic) | ΔR (Ω) ([2]; 30 mg/L antibiotic) | ΔR/R0 (%) ([2]; 30 mg/L antibiotic) | relaxation time τ [2, 5] [min] | relaxation time τ [2, 6] [min] | relaxation time τ [2, 7] [min] | ΔR (Ω) ([3]; 0 h) | ΔR/R0 (%) ([3]; 0 h) | ΔR (Ω) ([3]; 1 h) | ΔR/R0 (%) ([3]; 1 h) | ΔR (Ω) ([3]; 2 h) | ΔR/R0 (%) ([3]; 2 h) | ΔR (Ω) ([3]; 3 h) | ΔR/R0 (%) ([3]; 3 h) | Previously Reported Minimum Inhibitory Concentration (MIC, mg/L) [4] [mg/L] | further results |
| --- | --- | --- | --- | --- | --- | --- | --- | --- | --- | --- | --- | --- | --- | --- | --- | --- | --- | --- | --- | --- | --- |
| O=C(O)c1cn(C2CC2)c2cc(N3CCNCC3)c(F)cc2c1=O [ciprofloxacin] | 8 Ω | 2.6 | 14.5 Ω | 4.7 | 10.5 Ω | 3.4 | 10.6 Ω | 3.5 | 21 | 23.5 | 23.6 | 15 Ω | 4.9 | 17 Ω | 5.6 | 18.6 Ω | 6.1 | 14 Ω | 4.6 | 0.0075 to 0.015 | most effective concentration to act against this bacterial strain ([2]; no big change in ΔF from 10 to 30 mg/L): 10 mg/L |
| CO/N=C(\C(=O)N[C@@H]1C(=O)N2C(C(=O)O)=C(CSc3nc(=O)c(=O)[nH]n3C)CS[C@H]12)c1csc(N)n1 [ceftriaxone] | 6 Ω | 2.0 | 16 Ω | 5.2 | 16.5 Ω | 5.4 | 18 Ω | 5.8 | 15.5 | 18.4 | 22.5 | 15 Ω | 4.9 | 15.5 Ω | 5.0 | 16.1 Ω | 5.2 | 16.6 Ω | 5.4 | 0.024 to 0.195 | bacterial (LPS) binding reduced to, frequency shift normalized to control ([1]; 0.1 mg/L antibiotic): 27%; bacterial (LPS) binding reduced to, frequency shift normalized to control ([1]; 0.1 mg/L antibiotic, listed as Ceftriaxone): 27%; ΔF (Hz) ([1]; log phase E. coli incubated 18 hours, 37° C. with 0.1 mg/L antibiotic, FIG. 24A): 87 Hz; ΔF (Hz) ([3]; incubation time 0 h): 356 Hz; ΔF (Hz) ([3]; incubation time 1 h): 256 Hz; ΔF (Hz) ([3]; incubation time 2 h): 223 Hz; ΔF (Hz) ([3]; incubation time 3 h): 187 Hz; MIC ([4]; E. coli (47)): 0.0125 to 25 mg/L; MIC ([4]; E. coli (305)): 0.06 to 8 mg/L |
| CN(C)[C@@H]1C(O)=C(C(N)=O)C(=O)[C@@]2(O)C(O)=C3C(=O)c4c(O)cccc4[C@@](C)(O)[C@H]3C[C@@H]12 [tetracycline] |  |  | 16.3 Ω | 5.3 | 17.2 Ω | 5.6 | 14.5 Ω | 4.7 |  |  |  | 16 Ω | 5.3 | 17 Ω | 5.6 | 16 Ω | 5.2 | 15.6 Ω | 5.1 |  | ΔR (Ω) ([1]; 10 mg/L antibiotic, FIG. 24A): 7.2 Ω; ΔR/R0 (%) ([1]; 10 mg/L antibiotic, FIG. 24A): 2.3%; ΔF (Hz) ([2]; pretreated 3 hours with 10 mg/L antibiotic): 200 Hz and 212 Hz; ΔF (Hz) ([2]; pretreated 3 hours with 30 mg/L antibiotic): 160 Hz; ΔF (Hz) ([2]; stationary phase E. coli pretreated 3 hours with 1 mg/L antibiotic): 260 Hz and 262 Hz; ΔF (Hz) ([3]; incubation time 0 h): 378 Hz; ΔF (Hz) ([3]; incubation time 1 h): 329 Hz; ΔF (Hz) ([3]; incubation time 2 h): 279 Hz; ΔF (Hz) ([3]; incubation time 3 h): 244 Hz |
